Patent publication US20170296568A1, “SIRTUIN GENE POTENTIATOR, AND PHARMACEUTICAL PRODUCT, COSMETIC PRODUCT, AND FOOD PRODUCT USING SAME” (MORISHITA JINTAN CO., LTD., priority 2012, published 2017)

What was measured:
Format in all cases: cell-based, human
hSIRT1 promoter [1] = experiment: Screening for SIRT1 enhancing polyphenol or terpenoid: hSIRT1 promoter activity (EGFP fluorescence) in Caco-2-hSIRT1p-EGFP cells; details: 10 μM, 2 days after addition, relative ratio to control (PBS), FIG. 1
Text: First, the promoter region (−1593 to −1 bp) of hSIRT1 (human SIRT1) was acquired using the LA-PCR method using, as a template, a human genome DNA extracted from TIG-1 cells (obtained from Institute of Development, Aging and Cancer, Tohoku University), with primers synthesized based on reported information of the hSIRT1 genomic sequence so as to synthesize primers having added AseI and NheI recognition sequences at their respective ends (hSIRT1p-AseI (SEQ ID NO: 1) and hSIRT1p-NheI (SEQ ID NO: 2)). The PCR reaction condition was at 94° C. for 1 minute, followed by at 98° C. for 20 seconds; and at 68° C. for 2 minutes, 34 cycles; and then at 72° C. for 10 minutes for extension reaction. LA-Taq from Takara Shuzo Co., Ltd. was used as the TaqDNApolymerase. The primers were synthesized by Nippon EGT based on our request.
The hSIRT1 promoter fragment obtained by the LA-PCR was subjected to TA cloning using a pGEM-T Easy vector (manufactured by Promega KK). Furthermore, the base sequence thereof was confirmed by sequencing. The hSIRT1 promoter fragment, inserted into the pGEM-T Easy vector, was cut out by digestion with the restriction enzymes AseI and NheI, and the CMV promoter of a pEGFP-C3 (manufactured by Takara Bio Inc.) was removed by digestion with AseI and NheI in a similar manner, and the hSIRT1 promoter fragment was inserted into that removed site, so that phSIRT1p-EGFP was obtained.
Transfection was performed using a LIPOFECT AMINE 2000 REAGENT (manufactured by Life Technologies) according to its protocol. On the day before the transfection, Caco-2 cells (human colonic cancer-derived cells obtained from Riken BioResource Center) were plated at 1.0×10^6 in a 10-mL dish. On the day of the transfection, phSIRT1p-EGFP (10 μg) was diluted in a serum-free OPTI-MEM medium to a volume of 750 μL, after which 15 μL of LIPOFECT AMINE Reagent was diluted in a serum-free OPTI-MEM medium to […], and they were incubated at room temperature for 5 minutes. The transfection using the LIPOFECT AMINE Reagent was performed in the absence of serum, during which the culture medium of the Caco-2 cells plated on the previous day was removed, and was replaced by 5 mL of serum-free OPTI-MEM medium. After 30 minutes of this, 1.5 mL of DNA-LIPOFECT AMINE 2000 mixture was added to each 10-mL dish. After the addition, the dish was gently shaken to mix the DNA-LIPOFECT AMINE and the OPTI-MEM. After the culture for 3 hours, the DNA-LIPOFECT AMINE mixture solution was removed, and the medium was replaced by a serum-containing culture medium. Subsequently, culture was performed under the environment at 5% CO2/95% air and 37° C. for 21 hours, and the culture medium was replaced by a new one.
Since phSIRT1p-EGFP is resistant to the drug G418, the drug G418 was added to the transfected cells to 70 μg/mL to subject them to the drug selection for a week. The culture medium was replaced by a new one every three days, and G418 was added every time at the same concentration. Accordingly, Caco-2-hSIRT1p-EGFP cells were obtained.
Caco-2-hSIRT1p-EGFP cells were plated at 0.6×10^4 cells/well in a 96-well plate. On the next day, 10 μM polyphenol or terpenoid, or control (PBS) was added to each well. At 2 days after the addition, the culture solution was aspirated, after which 100 μL of 4% paraformaldehyde was added to each well, and the plate was allowed to stand at room temperature for 10 minutes. After the plate was allowed to stand for 10 minutes, 4% paraformaldehyde was aspirated, 100 μL of Cellstain (registered trademark)-Hoechst 33342 solution (Dojindo) diluted 1/500 with PBS was added to each well, and the plate was allowed to stand at room temperature in the dark for 15 minutes and the solution was then aspirated. Then, 100 μL of PBS was added to each well, and the fluorescence intensity was measured using an IN Cell Analyzer 1000 (GE Healthcare, Amersham Place, UK). The promoter activity was represented by a relative ratio to the activity of the control.

sirtuin gene hSIRT1 = experiment: Expression level of endogenous sirtuin gene hSIRT1 in Caco-2 cells (quantitative PCR, relative to β-actin); details: 10 μM, 2 days, qPCR normalised to β-actin, FIG. 2
Experimental: Caco-2 cells were plated at 3.0×10^5 cells for a 5-mL dish. After 24 hours, each polyphenol was added to be 10 μM. Note that as a negative control, none of polyphenol nor terpenoid was added, and as a positive control, 10 μM resveratrol was added. At 2 days after this treatment, RNA was collected.
The total RNA was prepared using High Pure RNA Isolation Kit (manufactured by Roche, Indianapolis, Ind., USA). For the procedures from the total RNA preparation to the reverse transcription, the reagents and tools used were RNase-free. Cells were prepared in a sub-confluent to confluent condition in a cell culture dish (Greiner bio-one, Monroe, N.C., USA). The medium was completely removed, 200 μL of PBS, and 400 μL of cell lysis solution, which was contained in High Pure RNA Isolation Kit, were added, and the entire dish was well covered by the cell lysis solution. When the viscosity of the cell lysis solution was decreased, the cell lysis solution was collected into a 1.5-mL sample tube. The collected sample was well suspended. A filter tube and a collection tube, which were contained in High Pure RNA Isolation Kit, were assembled, and the sample was pipetted into a buffer reservoir in the upper portion of the filter tube, and was centrifuged at 8,000×g for 15 seconds. The flowthrough liquid into the collection tube was discarded, and the filter tube and the collection tube were again assembled. Then, 90 μL of DNase incubation buffer per sample was pipetted into a sterile reaction tube, and 10 μL of DNase I was added into the tube and mixed. The mixture liquid was pipetted into the buffer reservoir in the upper portion of the filter tube, was added on the glass fiber fleece in the filter tube, and was incubated at room temperature for 15 minutes. Then, 500 μL of wash buffer I, which was contained in High Pure RNA Isolation Kit, was added to the buffer reservoir in the upper portion of the filter tube, and was centrifuged at 8,000×g for 15 seconds. The flowthrough liquid into the collection tube was discarded, and the filter tube and the collection tube were again assembled. Then, 500 μL of wash buffer II was added to the buffer reservoir in the upper portion of the filter tube, and centrifugation was performed at 8,000×g for 15 seconds. The liquid discharged to the collection tube was discarded, and the filter tube and the collection tube were again assembled. Then, 200 μL of wash buffer II was added to the buffer reservoir in the upper portion of the filter tube, and centrifugation was performed at 13,000×g for 2 minutes, after which a remaining wash buffer in the filter tube was removed. The collection tube was discarded, the filter tube was inserted into a sterile reaction tube, and 50 μL of elution buffer was added in the filter tube, and centrifugation was performed at 8,000×g for 1 minute. The eluate obtained by the procedures was taken as an RNA solution. The concentration of RNA in the solution was calculated based on the light absorbance at 260 nm with a NanoDrop 2000/2000c spectrophotometer (Thermo Scientific, Waltham, Mass., USA), for use in subsequent experiments.
Then, 5 pmol of oligo(dT)20 primer was added to 1.0 μg of total RNA extracted from the cells, and sterile water was further added thereto so that the total liquid amount was 13 μL. Heat treatment was performed using a thermal cycler (Peltier Thermal Cycler PTC-200, MJ Research, Watertown, Mass., USA) at 65° C. for 5 minutes, and the resultant was immediately transferred in ice to quench it. During this treatment, the reverse transcriptase reaction program was advanced to the 42° C. stage and was temporarily stopped. A mixture solution obtained by mixing 4 μL of reverse transcriptase reaction buffer solution, 2 μL of 1 mM dNTPs (Amershan Pharmacia Biotech., Buckinghamshire, UK), and 0.5 μL of reverse transcriptase ReverTra Ace (TOYOBO, Osaka, Japan) per sample was added to and gently mixed with the sample on ice after 5 minutes. […]

hSIRT1 promoter [2] = experiment: Enhancing the hSIRT1 promoter: EGFP fluorescence intensity in HaCaT-hSIRT1p-EGFP cells by flow cytometry; details: 10 μM in DMSO, 24 hours after addition, FIG. 4
Experimental: HaCaT cells (human epidermis keratinocyte-derived cell lines, provided by Dr. Takumi Miura, National Center for Child Health and Development) were cultured using a Dalbecco's Modified Eagle Medium (DMEM) medium (Nissui Pharmaceutical Co., Ltd, Tokyo) supplemented with 10% FBS, 100,000 U/L penicillin (Meiji, Tokyo), 100 mg/L streptomycin (Meiji), and 2.0 g/L NaHCO3. These cells were subcultured at 37° C. in the presence of 5% CO2.
HaCaT cell lines (HaCaT-hSIRT1p-EGFP cells) into which the vector (phSIRT1-EGFP) described in Reference Example 1 was integrated were prepared as below.
The HaCaT cells were disseminated at 9.0×10^5 in a φ60-mm dish, and were cultured in 10% FBS supplemented DMEM medium. Cells as a control were prepared in a similar manner. After 24 hours, 8 μg of phSIRT1p-EGFP was added to and mixed with 300 μL of DMEM medium, 24 μL of Hilymax (manufactured by Dojindo Laboratories), which is a transfection reagent, was further added and mixed therewith, and the mixture was incubated for 15 minutes at room temperature. Subsequently, the total amount was added to the HaCaT cells. After 3 hours, the medium was replaced by 10% FBS supplemented DMEM medium.
At 24 hours after the gene introduction, the medium was replaced by 10% FBS supplemented DMEM medium containing 750 μg/mL of G418 (Wako Pure Chemical Industries, Ltd.). After visually confirming under a microscope that all the control non-treated HaCaT cells were killed, the subculture was continued using 10% FBS supplemented DMEM containing 150 μg/mL of G418.
It was confirmed with flow cytometry that the phSIRT1p-EGFP vector was reliably transferred inro the cells after the subculture. The above-described cells and the control non-treated HaCaT cells were plated at 7.0×10^5 per a φ60-mm dish, respectively. After 24 hours, the cells were picked up and well suspended in 2 mL of 5% FBS supplemented DMEM medium, and were filtered through a Nylon Mesh (Kyoshin Rikoh Inc., Japan), and the EGFP fluorescence intensity thereof was measured with a Flow Cytometer (EPICS, BeckmanCoulter). The analysis was performed using software FlowJo (Tree Star, Ashland Oreg.), so that the EGFP fluorescence intensity of each cell was represented as a histogram.
HaCaT-hSIRT1p-EGFP cells were plated at 1.7×10^6 cells in a φ60-mm dish (as measured by flow cytometry) or at 2.0×10^4 cells/well in a 96-well plate (as measured by an IN Cell Analyzer 1000). After 24 hours, 10 μM of each polyphenol or terpenoid dissolved in DMSO (Wako Pure Chemical Industries, Ltd.) was added thereto. Note that as a negative control, the same amount of DMSO was added without polyphenol or terpenoid, and as a positive control, 10 μM resveratrol was added. At 24 hours after the addition of the various polyphenols or terpenoids or the controls, the fluorescence intensity was measured by flow cytometry.

Structure (SMILES) | relative hSIRT1 promoter activity (hSIRT1 promoter [1]) | relative gene expression level of hSIRT1 (sirtuin gene hSIRT1) | EGFP fluorescence intensity (hSIRT1 promoter activity) (hSIRT1 promoter [2])
C[C@@]12CCc3occc3[C@H]1CC[C@@]13C[C@@H](CC[C@H]12)[C@@](O)(CO)C3 [cafestol] | particularly strong hSIRT1 promoter enhancing activity | hSIRT1 transcription enhancing effect was observed | 
O=C(O[C@@H]1O[C@@H]2COC(=O)c3cc(O)c(O)c(O)c3-c3c(cc(O)c(O)c3O)C(=O)O[C@H]2[C@H](OC(=O)c2cc(O)c(O)c(O)c2)[C@H]1OC(=O)c1cc(O)c(O)c(O)c1)c1cc(O)c(O)c(O)c1 [eugeniin] | particularly strong hSIRT1 promoter enhancing activity | hSIRT1 transcription enhancing effect was observed | 
CC1(C)[C@@H](O[C@H]2O[C@H](C(=O)O)[C@@H](O)[C@H](O)[C@H]2O[C@@H]2O[C@H](C(=O)O)[C@@H](O)[C@H](O)[C@H]2O)CC[C@]2(C)[C@H]3C(=O)C=C4[C@@H]5C[C@@](C)(C(=O)O)CC[C@]5(C)CC[C@@]4(C)[C@]3(C)CC[C@@H]12 [glycyrrhizin] |  | hSIRT1 transcription enhancing effect was observed | 
O=C(O[C@H]1[C@@H]2OC(=O)c3cc(O)c(O)c(O)c3-c3c(cc(O)c(O)c3O)C(=O)OC[C@H]2OC(O)[C@@H]1OC(=O)c1cc(O)c(O)c(O)c1)c1cc(O)c(O)c(O)c1 (stereo partly shown) [tellimagrandin I] | particularly strong hSIRT1 promoter enhancing activity |  | hSIRT1 expression effect on skin epidermis cells was seen
